{"source": "PubChem BioAssay AID449750", "about": "(Broad Institute, 2010)", "note": "Calls of active or inactive are those of the source. How the calls were made is not given here."}
{"test": "non-covalent RecA intein splicing inhibitors, dose response, biochemical, cell-free, fluorescence, secondary screen (AID 449750)"}
{"smiles": "CCc1[nH]nc2c1C1(CCN(C(=O)c3ccccc3)CC1)C(C#N)=C(N)O2", "AC50": "25 µM"}
{"smiles": "CCOC(=O)Cn1cc(/C=N/NC(=O)CC#N)c2ccccc21", "AC50": "> 38 µM (inactive)"}
{"smiles": "Cc1cc(C(=O)CCl)c(C)n1CCc1ccc(Cl)cc1", "AC50": "4.99 µM"}
{"smiles": "COCC(C)NC(=O)CCS(=O)(=O)c1nc(-c2ccc(OC)cc2)cc(C(F)(F)F)n1", "note": "(stereo not drawn)", "AC50": "> 38 µM (inactive)"}
{"smiles": "O=C1C(Cl)=C(NCc2cccnc2)C(=O)c2ccccc21", "AC50": "13.6 µM"}
{"smiles": "Nc1ccc2nc(N3CCOCC3)sc2c1", "AC50": "> 38 µM (inactive)"}
{"smiles": "Cc1cccc(N2CC(C(=O)OCC(=O)c3ccc(OC(=O)c4cccs4)cc3)CC2=O)c1C", "note": "(stereo not drawn)", "AC50": "> 38 µM (inactive)"}
{"smiles": "Cc1[nH][nH]c(=O)c1C(c1ccc(Cl)cc1)c1c(C)[nH][nH]c1=O", "AC50": "18.1 µM"}
{"smiles": "Cc1ccc(S(=O)(=O)N[C@@H](CCCCN)C(=O)CCl)cc1", "AC50": "> 38 µM (inactive)"}
{"smiles": "COC(=O)c1cccc(N2C(=O)C(Cl)=C(N3CCOCC3)C2=O)c1", "AC50": "> 38 µM (inactive)"}
{"smiles": "CCOc1cc(/C=C2\\C(=N)N3N=C(S(=O)(=O)CC)SC3=NC2=O)ccc1OC(=O)c1ccco1", "AC50": "> 38 µM (inactive)"}
{"smiles": "O=C1C(Cl)=C(NS(=O)(=O)c2ccc([N+](=O)[O-])cc2)C(=O)c2ccccc21", "AC50": "10.3 µM"}
{"smiles": "c1ccc(-c2nc(N3CCCCCC3)nc(-n3ccnc3)n2)cc1", "AC50": "> 38 µM (inactive)"}
{"smiles": "C=CCn1c(-c2cccnc2Cl)nc2ccccc21", "AC50": "> 38 µM (inactive)"}
{"smiles": "COc1cccc(/C=C/C(=O)c2ccc(NS(=O)(=O)c3ccc(C)cc3)cc2)c1", "AC50": "6.79 µM"}
{"smiles": "Cn1c2c(c(=O)n(C)c1=O)[C@@]1(C(=O)Nc3ccccc31)C(C#N)=C(N)O2", "AC50": "> 38 µM (inactive)"}
{"smiles": "O=C(Nc1nc(-c2ccccc2)cs1)c1ccccc1NS(=O)(=O)c1ccc(F)cc1", "AC50": "8.16 µM"}
{"smiles": "Cn1nc(C(C)(C)C)cc1C(=O)Sc1cccc(Br)c1", "AC50": "> 38 µM (inactive)"}
{"smiles": "O=C1C(Br)=Cc2cccc3cccc1c23", "AC50": "> 38 µM (inactive)"}
{"smiles": "CCC1C(=O)N(c2nc(C)cc(C)n2)N=C1C", "note": "(stereo not drawn)", "AC50": "> 38 µM (inactive)"}
{"smiles": "COc1c(O)ccc2c1CN1CCc3cc4c(cc3C1C2)OCO4", "note": "(stereo not drawn)", "AC50": "> 38 µM (inactive)"}
{"smiles": "CC1=Nc2cccc3cccc(c23)N1C", "AC50": "> 38 µM (inactive)"}
{"smiles": "C/C(=C/CCC(C)[C@H]1CC[C@@]2(C)C3=C(CC[C@]12C)[C@@]1(C)CCC(=O)C(C)(C)[C@@H]1CC3)C(=O)O", "note": "(stereo partly drawn)", "AC50": "10.7 µM"}
{"smiles": "Cc1ccc(/C=C2\\SC(N3CCN(C(c4ccccc4)c4ccccc4)CC3)=NC2=O)o1", "AC50": "4.48 µM"}
{"smiles": "CN1CCN(C2=C(Cl)C(=O)C(c3cnc(N4CCCCC4)s3)=C(Cl)C2=O)CC1", "AC50": "3.1 µM"}
{"smiles": "O=C1c2ccccc2-n2c1nc1ccccc1c2=O", "AC50": "> 38 µM (inactive)"}
{"smiles": "CC(=O)n1cc(N(C(=O)CCl)c2ccc(Cl)cc2)c2ccccc21", "AC50": "2.08 µM"}
{"smiles": "C/C(CC(=O)Nc1ccc(Cl)cn1)=N\\NC(=O)Cc1cccs1", "AC50": "> 38 µM (inactive)"}
{"smiles": "N#CC1(NC(=O)COC(=O)c2cc(O)c3ccccc3c2O)CCCCC1", "AC50": "10.2 µM"}
{"smiles": "COc1ccc(/C=C/C(=O)c2ccncc2)c2ccccc12", "AC50": "18.6 µM"}
{"smiles": "O=C1C(=O)c2ccccc2C([O-])=C1[n+]1ccccc1", "AC50": "28.5 µM"}
{"smiles": "CC1(C)CC(C(CCN(Cc2ccccc2)C(=O)c2ccco2)c2ccc(F)cc2)CCO1", "note": "(stereo not drawn)", "AC50": "5.14 µM"}
{"smiles": "COCc1[nH]nc2c1C(c1ccccc1F)C(C#N)=C(N)O2", "note": "(stereo not drawn)", "AC50": "> 38 µM (inactive)"}
{"smiles": "CCNC(=O)c1ccccc1-c1nc(-c2ccccc2)no1", "AC50": "> 38 µM (inactive)"}
{"smiles": "O=C(CCl)Nc1sccc1C(=O)c1ccccc1", "AC50": "14 µM"}
{"smiles": "Cc1[nH]n(-c2ccccc2)c(=O)c1/C=N/NC(=O)c1ccc(O)cc1O", "AC50": "> 38 µM (inactive)"}
{"smiles": "COC(=O)c1ccccc1OC(=O)c1ccc(Br)o1", "AC50": "> 38 µM (inactive)"}
{"smiles": "COc1ccc(NC(=O)/C(C#N)=C/c2ncc([N+](=O)[O-])n2C)c(OC)c1", "AC50": "> 38 µM (inactive)"}
{"smiles": "c1cc2cn[nH]c2cc1NC1CCCCCC1", "AC50": "36.2 µM"}
{"smiles": "CCOc1cc(C(c2c(C)[nH][nH]c2=O)c2c(C)[nH][nH]c2=O)cc(Br)c1OC", "AC50": "15.8 µM"}
{"smiles": "N#C[C@H]1[C@H](c2ccccc2)[C@](C#N)(C(=O)c2ccccc2)[C@@H]2C=Cc3ccccc3N21", "AC50": "> 38 µM (inactive)"}
{"smiles": "CCOC(=O)c1nn(-c2ccccc2C)c(=O)c2c(N)scc12", "AC50": "> 38 µM (inactive)"}
{"smiles": "Cc1cc2c3c(c1)C(C)CC(C)(C)N3C(=O)C2=C(C#N)C#N", "note": "(stereo not drawn)", "AC50": "> 38 µM (inactive)"}
{"smiles": "N#C/C(=C/c1ccncc1)c1nc2ccccc2s1", "AC50": "> 38 µM (inactive)"}
{"smiles": "O=C(CSc1ncnc2c1nnn2Cc1ccccc1F)N1CCN(c2ccccc2)CC1", "AC50": "> 38 µM (inactive)"}
{"smiles": "O=C(CCCN1C(=O)/C(=C\\c2cccs2)SC1=S)Nc1ccc(O)cc1", "AC50": "> 38 µM (inactive)"}
{"smiles": "CC(C)(C)c1cc[n+](C2=C([O-])c3ccccc3C(=O)/C2=N\\S(=O)(=O)c2ccccc2)cc1", "AC50": "9.74 µM"}
{"smiles": "CC(=O)Oc1ccc2ccccc2c1C(NC(=O)Cc1ccccc1)c1ccc(Cl)cc1", "note": "(stereo not drawn)", "AC50": "4.04 µM"}
{"smiles": "Cc1[nH][nH]c(=O)c1C(c1ccc(N(C)C)c(Br)c1)c1c(C)[nH][nH]c1=O", "AC50": "38.7 µM"}
{"smiles": "O=C(O)CN1C(=O)/C(=C\\c2ccc(OC(=O)c3ccco3)cc2)SC1=S", "AC50": "> 38 µM (inactive)"}
{"smiles": "Cc1nn(-c2ccccc2)c2c1C(c1cccs1)C(C#N)=C(N)O2", "note": "(stereo not drawn)", "AC50": "18.3 µM"}
{"smiles": "N#Cc1ncc(Cc2ccccc2)nc1C#N", "AC50": "> 38 µM (inactive)"}
{"smiles": "CCOC(=O)c1c(C)sc2c1N(C(=O)CCl)c1cc(Cl)ccc1S2", "AC50": "3.37 µM"}
